Patent US8378172B2, “Methods using acyl-CoA binding proteins to enhance low-temperature tolerance in genetically modified plants” (The University of Hong Kong, priority 2009, dated 2013)

Tests used:
(His)6-ACBP6 [1] = target: T1, (His)6-ACBP6 (Arabidopsis thaliana, UniProt P57752); assay: in vitro filter-binding assay, (His)6-ACBP6/lipid binding on nitrocellulose; conditions: 1 μg/ml (His)6-ACBP6
T1 construct: made in house; host or cells: Escherichia coli
Method: A, Purification of (His)6-ACBP6 recombinant protein. […] M, marker; lane 1, flow through fraction; lane 2, washing fraction at pH 6.3; lanes 3-8, eluted fractions at pH 5.9; lanes 9-12, eluted fractions at pH 4.5. B, (His)6-ACBP6/lipid binding on filters. Various concentrations (0, 12.5, 25.0 and 32.5 μM) of lipids (PA, PC and LysoPC) were spotted onto nitrocellulose and incubated with 1 μg/ml of purified (His)6-ACBP6 protein. The (His)6-ACBP6/lipid binding was detected by immunoblotting with HRP-conjugated anti-penta-His antibodies. C, Effect of PC acyl species on (His)6-ACBP6/lipid binding. Fifty μM lipid (PC, 16:0-PC, 18:0-PC, 18:1-PC, 18:2-PC or DMPC) spotted onto nitrocellulose was incubated with 1 μg/ml of purified (His)6-ACBP6 protein. The (His)6-ACBP6/lipid binding was detected by immunoblotting with HRP-conjugated anti-penta-His antibodies. […]
Expression and purification of His-tagged ACBP6 recombinant protein was carried out according to Xiao et al. (Plant J 54: 141-151, 2008). […] Following incubated with the HRP-conjugated anti-penta-His antibodies (1:2,000; QIAGEN, Cat. No. 1014922) for 1 h at RT, the filter was again washed 3 times with TTBS, each for 10 min and then detected with the ECL Western Blotting Detection Kit (Amersham) following the manufacturer's protocols.
T1 sequence (P57752 other isoform, or with tags, fused parts or gaps): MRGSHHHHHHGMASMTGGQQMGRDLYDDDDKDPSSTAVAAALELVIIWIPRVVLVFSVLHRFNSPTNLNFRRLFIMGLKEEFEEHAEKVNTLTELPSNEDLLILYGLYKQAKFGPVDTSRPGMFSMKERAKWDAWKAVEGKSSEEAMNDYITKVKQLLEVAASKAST

(His)6-ACBP4 = target: T2, (His)6-ACBP4 (Arabidopsis thaliana, UniProt Q9MA55); conditions: recombinant (His)6-ACBP4; read-out: dissociation constant (Kd) in binding oleoyl-CoA esters; cited from earlier work
T2 construct: (His)6
T2 sequence (Q9MA55 1-668): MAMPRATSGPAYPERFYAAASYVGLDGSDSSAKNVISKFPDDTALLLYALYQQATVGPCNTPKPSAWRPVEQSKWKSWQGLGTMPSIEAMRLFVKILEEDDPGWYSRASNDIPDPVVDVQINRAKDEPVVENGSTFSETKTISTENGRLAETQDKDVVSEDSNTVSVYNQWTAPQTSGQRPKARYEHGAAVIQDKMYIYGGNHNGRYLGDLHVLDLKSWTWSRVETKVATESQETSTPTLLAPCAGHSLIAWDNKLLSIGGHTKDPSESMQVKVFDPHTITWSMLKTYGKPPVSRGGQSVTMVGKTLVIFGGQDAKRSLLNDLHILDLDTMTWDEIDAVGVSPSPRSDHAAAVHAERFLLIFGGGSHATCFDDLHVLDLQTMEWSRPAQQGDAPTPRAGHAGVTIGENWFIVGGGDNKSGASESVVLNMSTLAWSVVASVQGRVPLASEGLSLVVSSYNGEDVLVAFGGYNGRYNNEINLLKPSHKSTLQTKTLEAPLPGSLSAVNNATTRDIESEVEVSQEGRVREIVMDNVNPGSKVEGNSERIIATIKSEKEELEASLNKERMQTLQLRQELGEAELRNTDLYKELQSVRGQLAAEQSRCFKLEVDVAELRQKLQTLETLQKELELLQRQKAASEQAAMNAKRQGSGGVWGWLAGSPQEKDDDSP

(His)6-ACBP6 [2] = target: T3, (His)6-ACBP6 (Arabidopsis thaliana, UniProt P57752); conditions: recombinant (His)6-ACBP6; read-out: dissociation constant (Kd) in binding oleoyl-CoA esters; cited from earlier work
T3 construct: (His)6
T3 sequence (P57752 1-92): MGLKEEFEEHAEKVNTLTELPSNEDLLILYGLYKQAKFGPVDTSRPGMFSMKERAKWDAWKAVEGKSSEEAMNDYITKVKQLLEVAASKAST

(His)6-ACBP5 = target: T4, (His)6-ACBP5 (Arabidopsis thaliana, UniProt Q8RWD9); conditions: recombinant (His)6-ACBP5; read-out: dissociation constant (Kd) in binding oleoyl-CoA esters; cited from earlier work
T4 construct: (His)6
T4 sequence (Q8RWD9 1-648): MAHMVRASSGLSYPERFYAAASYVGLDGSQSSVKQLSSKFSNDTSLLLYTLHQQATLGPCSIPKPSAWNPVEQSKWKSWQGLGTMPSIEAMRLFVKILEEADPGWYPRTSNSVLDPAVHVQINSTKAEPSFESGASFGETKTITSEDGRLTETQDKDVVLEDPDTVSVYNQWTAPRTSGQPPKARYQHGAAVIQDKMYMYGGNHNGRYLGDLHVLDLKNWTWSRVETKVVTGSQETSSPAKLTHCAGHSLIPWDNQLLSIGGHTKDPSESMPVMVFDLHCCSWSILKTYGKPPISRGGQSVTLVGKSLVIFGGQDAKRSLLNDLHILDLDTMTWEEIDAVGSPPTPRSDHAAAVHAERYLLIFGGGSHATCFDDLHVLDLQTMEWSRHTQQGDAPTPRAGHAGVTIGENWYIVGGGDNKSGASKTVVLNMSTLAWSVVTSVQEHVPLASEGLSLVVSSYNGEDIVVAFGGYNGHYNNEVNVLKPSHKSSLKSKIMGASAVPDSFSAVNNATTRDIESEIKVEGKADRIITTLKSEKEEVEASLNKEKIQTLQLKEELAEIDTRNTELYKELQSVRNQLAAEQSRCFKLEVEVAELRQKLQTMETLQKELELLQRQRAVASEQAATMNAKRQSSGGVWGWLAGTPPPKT

## 1,2-diacyl-sn-glocero-3-phosphocholine [PC]
(His)6-ACBP6 [1]; 0, 12.5, 25.0 and 32.5 μM lipid spotted, FIG. 7B
  (His)6-ACBP6/lipid binding on filters: binds

## CCCCCCCCCCCCCC(=O)OC[C@H](COP(=O)([O-])OCC[N+](C)(C)C)OC(=O)CCCCCCCCCCCCC [DMPC, 1,2-dimyristoyl-sn-glycero-3-phosphocholine]
(His)6-ACBP6 [1]; 50 μM lipid spotted, FIG. 7C
  effect of PC acyl species on (His)6-ACBP6/lipid binding: did not bind

## CCCCCCCC/C=C\CCCCCCCC(=O)SCCNC(=O)CCNC(=O)[C@H](O)C(C)(C)COP(=O)(O)OP(=O)(O)OC[C@H]1O[C@@H](n2cnc3c(N)ncnc32)[C@H](O)[C@@H]1OP(=O)(O)O [oleoyl-CoA]
(His)6-ACBP4
  Kd: 560 nM
(His)6-ACBP6 [2]
  Kd: 3700 nM
(His)6-ACBP5
  Kd: 680 nM
